Assay results as given in patent publication US20250268873A1, “COMBINATION OF DUAL ATM AND DNA-PK INHIBITORS AND IMMUNOTHERAPEUTIC AGENTS FOR USE IN CANCER THERAPY” (XRAD THERAPEUTICS, INC., priority 2021, published 2025).

How the values were obtained:
MC38 tumors = experiment: MC38 syngeneic murine tumor model; format: in vivo; conditions: for Day 20 regression: p<0.05
Method: The murine colon adenocarcinoma cell line, MC38-NCI.TD1 (MC38), was cultured in Dulbecco's modified Eagle's medium (DMEM), 10% fetal bovine serum (FBS), 25 μg/ml gentamicin, 2 mM L-glutamine, 1% penicillin/streptomycin/L-glutamine at 37° C. in 5% CO2. Cells were dissociated in 0.25% trypsin/2.21 mM ethylenediaminetetraacetic acid in Hank's Balanced Salt Solution and brought to a density of 5×10^6 cells/200 μL in DMEM. Tumors were initiated by injection of the cell suspension subcutaneously in the right axilla of female C57BL/6 mice (Jackson Laboratory). All mice were sorted into 7 study groups (n=10) based on caliper estimation of tumor burden. Mice were distributed to ensure that the mean tumor burden for all groups was within 10% of the overall mean tumor burden for the study population (90 mm^3). Mice were monitored daily for clinical signs and weighed and measured three times weekly. The study endpoint was 30 days post staging or when tumor burden was >2000 mm^3.
The vehicle for compound 569 was 0.5% hydroxypropyl methyl cellulose (HPMC) and 0.1% Tween 80 dissolved in deionized water. Vehicle for compound 569 and compound 569 (12 mg/kg) were administered by oral gavage once daily starting the day of staging for two consecutive days (qd×2), in combination with focal radiation. Mice stratified to the radiation therapy groups received 5 Gy per day for two consecutive days (qd×2) 60 minutes following administration of the vehicle or compound 569. The mice were anesthetized with isoflurane during the radiation treatment, which was performed with the Xstrahl Life Sciences Small Animal Radiation Research Platform (Xstrahl, Inc.) Mice were irradiated at an average dose rate of 2.5 Gy/min.
The vehicle for isotype control (clone 2A3) anti-mouse PD-1 (anti-mPD-1; Bio X Cell) and anti-mPD-1 (Clone RMP1-14; Bio X Cell) was phosphate buffered saline (PBS). Isotype control anti-mPD-1 (10 mg/kg) and anti-mPD-1 (10 mg/kg) were administered intraperitonealy twice weekly for 2 weeks starting day 2 post staging. Treatment schedules for the various groups of animals are summarized below: • Group 1 mice received vehicle qd×2+10 mg/kg isotype control (q3d×2, 3 days off)×2; start 2 days post stage. • Group 2 mice received 10 mg/kg anti-mPD-1 (q3d×2, 3 days off)×2; start 2 days post stage. • Group 3 mice received focal irradiation 5 Gy qd×2+10 mg/kg isotype control (q3d×2, 3 days off)×2; start 2 days post stage. • Group 4 mice received focal irradiation 5 Gy qd×2+10 mg/kg anti-mPD-1 (q3d×2, 3 days off)×2; start 2 days post stage. • Group 5 mice received 12 mg/kg Compound 569 qd×2 (1 hr prior to focal irradiation)+5 Gy qd×2 • Group 6 mice received 12 mg/kg Compound 569 qd×2+10 mg/kg anti-mPD-1 (q3d×2, 3 days off)×2; start 2 days post stage. • Group 7 mice received 12 mg/kg Compound 569 qd×2 (1 hr prior to focal irradiation)+5 Gy qd×2+10 mg/kg anti-mPD-1 (q3d×2, 3 days off)×2; start 2 days post stage.
• ΔC and ΔT—Are individual mouse endpoints that are calculated for each mouse as follows:
[formula] • Where Tt and T0 are the tumor burdens of a treated mouse at time t or at the initiation of dosing, respectively. ΔC reflects similar calculations for the control mice. • Median ΔT/ΔC—Is a group endpoint. It is calculated for each day of treatment as:
[formula] • The results are presented as a %. When the median ΔT/ΔC is negative (the median treated tumor burden is regressing), the median ΔT/ΔC is not reported and the Median % Regression is reported instead. • % Regression—Is a group endpoint. It indicates the percentage reduction in the Median tumor volume from baseline. It is calculated as: […]
Day 20 post staging was chosen for ΔT/ΔC since it was the last day all animals were on study prior to euthanasia due to tumor burden. • Complete Regression (CR)—An animal is credited a complete regression if its tumor burden is reduced to an immeasurable volume at any point after the first treatment. […]

DNA-PK = DNA-PK (Homo sapiens (Human), UniProt P78527); experiment: Pharmacodynamic assay, pDNA-PK/DNA-PK in FADU tumors; format: in vivo; conditions: for pDNA-PK/DNA-PK: FADU tumors
Method: FADU or MDA-MB-231 cells were harvested during log phase growth for in vivo implantation. The resuspended cells were washed three times in phosphate buffered saline (PBS) before preparing the working dilution in PBS. FADU cells were diluted to 1×10^7 cells/mL and MDA-MB-231 cells were diluted to 5×10^7 cells/mL. Each mouse was injected subcutaneously in the right flank with 100 μL of the cellular suspension. Tumor growth was monitored until the tumors reached a target volume of at least 100 mm^3, at which point mice were randomly stratified into four treatment groups.
Tumor studies were performed as follows. Mice bearing FADU or MDA-231 tumors were pre-dosed with vehicle alone or compound 569 alone at 3, 6, and 10 mg/kg. Tumors were then irradiated with 10 Gy 45 min after vehicle or compound 569 administration or left unirradiated (vehicle and compound 569 at 10 mg/kg). Tumors were harvested 1 h post radiation.
Tissue homogenates for pharmacodynamic analyses were collected and processed as follows. Tumor tissues from FADU or MDA-MB-231 tumors were flash frozen in liquid nitrogen and pulverized on dry ice using a tissue pulverizer. A portion of the tumor powder was transferred into a microtube, followed by addition of 500 μL of RIPA buffer [[…], pH 8.0, 150 mM NaCl, 0.1% SDS, 0.5% sodium deoxycholate, 1% IGEPAL® CA-630 (Sigma, I8896)]. To 10 ml of RIPA buffer, 2 tablets each of Protease inhibitor and Phosphatase inhibitor (Roche, #04693159001 & #04906837001), 200 μL of 0.1 M PMSF and 160 μL of Aprotinin, (Sigma, A6279) were added. The suspension was homogenized on ice with a pellet pestle motor (KONTES) and incubated on ice for 30 minutes. Cell lysates were centrifuged at 13,200 rpm for 15 min at 4° C. and supernatants were transferred to a new tube and analyzed for protein concentration with a BCA kit (Pierce, 23227), followed by immunoblotting.

[1] = Group 5: compound 569 12 mg/kg qd×2 + radiation 5 Gy qd×2
[2] = Group 7: compound 569 + radiation + anti-mPD-1

**Q.** What does the source list for `CC(C)NCCOc1ncc(-c2cc3c4c(cnc3cc2F)N(C)C(=O)C42CCC2)cc1NS(C)(=O)=O` [Compound 569, N-(5-(7′-Fluoro-3′-methyl-2′-oxo-2′,3′-dihydrospiro[cyclobutane-1,1′-pyrrolo[2,3-c]quinolin]-8′-yl)-2-(2-(isopropylamino)ethoxy)pyridin-3-yl)methanesulfonamide]?
**A.** incidence of complete regressions (CR) (MC38 tumors; [1]): 50%; incidence of tumor free survivors (TFS) (MC38 tumors; [1]): 30%; Day 20 regression (MC38 tumors; [1]): 22%; Day 20 median ΔT/ΔC (MC38 tumors; Group 6: compound 569 12 mg/kg po qd×2 + anti-mPD-1 10 mg/kg ip, p>0.05): 64%; incidence of death (MC38 tumors; Group 6: compound 569 12 mg/kg qd×2 + anti-mPD-1 10 mg/kg, 1 death, n=10): 10%; Day 20 regression (MC38 tumors; Group 7: compound 569 12 mg/kg qd×2 + radiation 5 Gy qd×2 + anti-mPD-1 10 mg/kg): 99%; incidence of complete regressions (CR) (MC38 tumors; [2]): 90%; incidence of tumor free survivors (TFS) (MC38 tumors; [2]): 90%; inhibition at 10 mg/kg (DNA-PK; 10 mg/kg, 10 Gy, FADU and MDA231 tumors (FIGS. 4 and 5), read-out: inhibition of tumor levels of radiation-induced autophosphorylation of DNA-PK): ~55%; pDNA-PK/DNA-PK (DNA-PK; 10 Gy, 3 mg/kg oral): 0.938; pDNA-PK/DNA-PK (DNA-PK; 10 Gy, 6 mg/kg oral): 0.658; pDNA-PK/DNA-PK (DNA-PK; 10 Gy, 10 mg/kg oral): 0.476; pDNA-PK/DNA-PK (DNA-PK; no radiation, 10 mg/kg oral): 0.343; basal phosphorylation of DNA-PK in tumors (DNA-PK; no radiation, 10 mg/kg): inhibited
